Assay results published in ChEMBL document CHEMBL1201862, “PubChem BioAssay data set” (2004).
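Cells were grown in 96-well plates and exposed to each compound for 48 hours at five concentrations; endpoints were interpolated linearly between bracketing concentrations, or set to the highest concentration if not reached. GI50 is the concentration that inhibits growth by half.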 The source made the active and inactive calls. Rule as the data show it: active = GI50 up to about 1.1 µM and inactive = higher.

Columns and labels:
Assay in all cases: NCI anticancer screen, dose series, 48 h
[1] = tested on: UACC-62
[2] = tested on: MDA-MB-435
[3] = tested on: ACHN
[4] = tested on: SW-620
[5] = tested on: HCT-15
[6] = tested on: M14
[7] = tested on: SNB-19
[8] = tested on: EKVX
[9] = tested on: SF-295
[10] = tested on: HOP-62
[11] = tested on: A498
[12] = tested on: Malme-3M
[13] = tested on: SK-MEL-2
[14] = tested on: HCT-116
[15] = tested on: IGROV-1
[16] = tested on: T47D
[17] = tested on: SF-539
[18] = tested on: UACC-257
[19] = tested on: SK-MEL-5
[20] = tested on: MDA-N
[21] = tested on: CAKI-1
[22] = tested on: Hs-578T
[23] = tested on: UO-31
[24] = tested on: U-251
[25] = tested on: OVCAR-3
[26] = tested on: KM12
[27] = tested on: NCI/ADR-RES
[28] = tested on: DU-145
[29] = tested on: HT-29
[30] = tested on: HOP-92
[31] = tested on: A549
[32] = tested on: SK-MEL-28
[33] = tested on: MCF7
[34] = tested on: NCI-H522
[35] = tested on: OVCAR-8
[36] = tested on: NCI-H460
[37] = tested on: OVCAR-5
[38] = tested on: TK-10
[39] = tested on: OVCAR-4
[40] = tested on: LOX IMVI
[41] = tested on: PC-3
[42] = tested on: SN12C
[43] = tested on: BT-549
[44] = tested on: SK-OV-3
[45] = tested on: 786-0
[46] = tested on: COLO 205
[47] = tested on: RXF 393
[48] = tested on: MOLT-4
[49] = tested on: SNB-75
[50] = tested on: NCI-H23
[51] = tested on: SF-268
[52] = tested on: HL-60
[53] = tested on: NCI-H226
[54] = tested on: SR

In the case of `CCOC(=O)Cc1ccc(Nc2nc3cc(C(F)(F)F)ccc3nc2C(=O)OCC)cc1`, the GI50 [1] was 48.8 µM (inactive), the GI50 [2] was > 100 µM (inactive) and the GI50 [3] was 33 µM (inactive). For the same compound, the GI50 [4] was > 100 µM (inactive), the GI50 [5] was greater than 100 µM and the GI50 [6] was > 100 µM (inactive). For the same compound, the GI50 [7] was 27.5 µM (inactive), the GI50 [8] was > 100 µM (inactive) and the GI50 [9] was 63.2 µM (inactive). The GI50 [10] was 35 µM (inactive), the GI50 [11] was 32.7 µM (inactive) and the GI50 [12] was > 100 µM (inactive). For the same compound, the GI50 [13] was 61.1 µM (inactive), the GI50 [14] was 81.8 µM (inactive) and the GI50 [15] was > 100 µM (inactive). The GI50 [16] was > 100 µM (inactive), the GI50 [17] was 14.7 µM (inactive) and the GI50 [18] was > 100 µM (inactive). For the same compound, the GI50 [19] was > 100 µM (inactive), the GI50 [20] was > 100 µM (inactive) and the GI50 [21] was 30.1 µM (inactive). The GI50 [22] was 30 µM (inactive), the GI50 [23] was > 100 µM (inactive) and the GI50 [24] was 45.2 µM (inactive). For the same compound, the GI50 [25] was > 100 µM (inactive), the GI50 [26] was > 100 µM (inactive) and the GI50 [27] was > 100 µM (inactive). The GI50 [28] was > 100 µM (inactive), the GI50 [29] was > 100 µM (inactive) and the GI50 [30] was 38.8 µM (inactive). For the same compound, the GI50 [31] was > 100 µM (inactive), the GI50 [32] was > 100 µM (inactive) and the GI50 [33] was 94.4 µM (inactive). The GI50 [34] was 50.8 µM (inactive), the GI50 [35] was 67.5 µM (inactive) and the GI50 [36] was > 100 µM (inactive). For the same compound, the GI50 [37] was > 100 µM (inactive), the GI50 [38] was 49.3 µM (inactive) and the GI50 [39] was 18.9 µM (inactive). For the same compound, the GI50 [40] was > 100 µM (inactive), the GI50 [41] was > 100 µM (inactive) and the GI50 [42] was > 100 µM (inactive). The GI50 [43] was 77.1 µM (inactive), the GI50 [44] was 51.4 µM (inactive) and the GI50 [45] was 23.5 µM (inactive). For the same compound, the GI50 [46] was > 100 µM (inactive), the GI50 [47] was 20.5 µM (inactive) and the GI50 [48] was > 100 µM (inactive). The GI50 [49] was 20.7 µM (inactive), the GI50 [50] was 34.6 µM (inactive) and the GI50 [51] was 37.3 µM (inactive). The GI50 [52] was > 100 µM (inactive), the GI50 [53] was 17.6 µM (inactive) and the GI50 [54] was > 100 µM (inactive).
